Test results as given in paper PMC5458179, “Oxidative DNA double strand breaks and autophagy in the antitumor effect of sterically hindered platinum(II) complexes in NSCLCs” (Oncotarget, 2017).

Legend:
[1] = system: p-Akt; assay: Western blot of PI3K/Akt/mTOR pathway; type: cell-based, human; settings: A549, 10 μM, 24 h, relative to control
From the text: (§1) The mammalian target of rapamycin (mTOR) kinase is used to regulate autophagy as controlled though oxidative stress, hypoxia and growth receptors. The phosphatidylinosital-3 kinase (PI3K)/Akt signaling pathway activates mTOR through phosphorylating and inactivating the tuberous sclerosis complex (TSC)1–TSC2 complex. Inhibition of mTOR results in activation of autophagy. […] At the same time, levels of the p-Akt protein decreased to 0.95-, 1.02-, and 0.39-folds, respectively (Figure 7B). […] As a results, the administration of complex 3 decreased levels of proteins in PI3K/Akt/mTOR signaling pathways.
(§2) Lysates were centrifuged at 12,000 g for 0.5 h at 4°C. The concentrations of total proteins were measured using the BCA assay method with Varioskan spectrofluorometer and spectrophotometer (Thermo, Waltham, MA) at 562 nm. Protein (20–100 μg) prepared from the indicated cells was loaded per lane and electrophoresed in 8% or 10% sodium dodecyl sulfate polyacrylamide gel electrophoresis (SDS-PAGE), and then transferred onto polyvinylidene difluoride (PVDF) Immobilon-P membrane (Bio-Rad, USA) using a transblot apparatus (Bio-Rad, USA). The membranes were blocked with 5% (w/v) non-fat milk at 0.5 h at 37°C, followed by overnight incubation at 4°C with primary antibodies diluted in PBST. After washing with PBST, the membranes were incubated for 1 h with an IRDye´800 conjugated secondary antibody diluted 1:20000 in PBST, and the labeled proteins were detected with an Odyssey Scanning System (Li-COR., Lincoln, Nebraska, USA).

[2] = system: p-mTOR; assay: Western blot of PI3K/Akt/mTOR pathway; type: cell-based, human; settings: A549, 10 μM, 24 h, relative to control
From the text: as §1, §2

[3] = Blood stability test with rat plasma (ICP-MS); type: in vitro ADME; settings: 37°C, 10 μM (method: 50 μM)
Protocol: Thus, we investigated the stability of complex 3 in rat plasma via ICP-MS measurement. Fresh rat plasma was added with a DMSO solution of complex 3 (10 μM). After incubation for 0, 2, 4 and 8 h at 37°C, the Pt content in rat plasma was measured by ICP-MS. […] This interaction contributes to the promising stability of complex 3 in rat plasma.
At varying time points (0, 2, 4 and 8 h) at 37°C, a 300 μL aliquot was removed from the incubating blood. The ICP-MS measurement was served to confirm the blood stability of complex 3 in rat plasma.

[4] = Pharmacokinetics, Pt in rat plasma after intravenous administration; type: in vivo, SD rats
Protocol: The pharmacokinetic profile of complex 3 was performed as compared with cisplatin. […] A non-compartment model was applied to analyze changes of pharmacokinetic behaviors. […] The results could be attributed to the biodistribution of the complex 3 in normal tissues as well as retention in blood circulation.
0.6 ml of blood compounds were collected from orbital cavity at 5 min followed by 0.5, 1, 2, 4, 8, 12 and 24 h after intravenous administration, heparinized and then centrifuged at 4000 rpm for 20 min at 4°C. The supernatant plasma was collected for measurement of Pt content using ICP-MS. The apparent plasma half-life time was calculated using a Phoenix Win Nonlin 6.3 Program (Pharsight Cooperation, St. Louis Missouri, USA).

[5] = system: pET28a plasmid DNA; assay: Agarose gel electrophoresis of plasmid DNA; settings: 0, 20, 80, 320, 640 μM
Protocol: The tested complexes were incubated with DNA at different concentrations.
Appropriate dilutions of tested complexes were made, and the required volumes of solutions were added to achieve a set of concentrations in the range of 0–100 mm; pET22b DNA (5 mL, 0.20 mg) was added to each tube, and the mixtures of platinum complexes and pET22b plasmid DNA were then incubated at 37°C for 6 or 24 h. Afterward, the agarose gel (made up to 1% w/v) containing ethidium bromide was prepared with TA buffer (50 mm Tris-acetate, pH 7.5). The mixtures with loading buffer (1 mL) underwent electrophores is in agarose gel in TA buffer at 100 V for 60 min. Bands were imaged using a Molecular Imager (Bio-Rad, USA) under UV light.

[6] = system: SGC-7901; assay: MTT cytotoxicity assay; type: cell-based, human; settings: 48 h drug exposure
Protocol: (§3) The results reveal that the steric hindrance plays a significant role in the cytotoxicity of complex 3.
(§4) Human cancer cell lines HepG2, SGC-7901, HCT-116, A549, NCI-H1299 and MCF-7 as well as normal liver cell line L02 were purchased from the Cell Bank of Shanghai Institute of Cell Biology. Among them, MCF-7, HepG2 cells were cultured at 37 °C in 5% CO2 with DMEM supplemented with 10% fetal bovine serum (FBS) (Hyclone, Lifescience, USA) and 1% penicillin/streptomycin (Beyotime, Nantong, China), while HCT-116, SGC-7901, A549, NCI-H1299 and L02 cells were cultured at 37 °C in 5% CO2 with RPMI-1640 supplemented with 10% FBS and 1% penicillin/streptomycin. Cells were passed every 2 days and restarted from frozen stocks upon reaching pass number 20.
(§5) In vitro cytotoxicity of the platinum compounds against human hepatocellular carcinoma (HepG-2), gastric carcinoma (SGC-7901), non-small-cell lung cancer (A549), and colorectal cancer (HCT-116) cell lines were measured by the MTT assays. Briefly, the cells were seeded in 96-well cultured plates at a density of 5000 cells/well. After overnight incubation (16 h), the cells were treated with the platinum complexes. After 48 h of incubation, 10 μL of a freshly diluted 3-(4,5-dimethyl-2-thiazolyl)-2,5-diphenyl-2H-tetrazolium bromide (MTT) solution (5 mg/mL) were added to each well and the plates were incubated at 37 °C in a humidified 5% CO2 atmosphere for 4 h. At the end of the incubation period the medium was removed and the formazan product was dissolved in 150 μL of DMSO. The cell viability was evaluated by measurement of the absorbance at 490 nm, using an Absorbance Reader (BioRad). IC50 values (compound concentration that produces 50% of cell growth inhibition) were calculated from curves constructed by plotting cell survival inhibitory rate (%) versus drug concentration logarithm. All experiments were repeated in three times. The reading values were converted to the percentage of control (% cell survival). Cytotoxic effects were expressed as IC50 values.

[7] = system: HepG2; assay: MTT cytotoxicity assay; type: cell-based, human; settings: 48 h drug exposure
Protocol: as §3, §4, §5

[8] = system: HCT-116; assay: MTT cytotoxicity assay; type: cell-based, human; settings: 48 h drug exposure
Protocol: as §3, §4, §5

[9] = system: L02 normal liver cell line; assay: MTT cytotoxicity assay; type: cell-based; settings: 48 h drug exposure
Protocol: as §3, §4, §5

CC(C)C[NH+]1[C@@H]2CCCC[C@H]2[NH+](CC(C)C)[Pt-2]12[O]C(=O)CC(=O)[O]2 (stereo partly drawn) [Complex 3]
levels of the p-Akt protein [1]: 1.02 folds
amounts of p-mTOR [2]: 1.41 folds
t1/2 in rat plasma (stability) [3]: 27.6 h
t1/2, Pt concentration-time profile in rat plasma ([4]; rat, in vivo, iv, 5 mg/kg): ~ 24.5 h
gel electrophoretic mobility of plasmid DNA [5]: a strong unwinding of the supercoiled DNA
IC50 [6]: 38.6 ± 2.49 µM
IC50 [7]: 52.9 ± 4.37 µM
IC50 [8]: 38.6 ± 2.67 µM
IC50 [9]: 82.6 ± 3.95 µM

O=C1[O][Pt]2([NH][C@@H]3CCCC[C@H]3[NH]2)[O]C1=O [Oxaliplatin, oxaliplatin, reference compound]
levels of the p-Akt protein [1]: 0.95 folds
amounts of p-mTOR [2]: 1.15 folds
t1/2 in rat plasma (stability) [3]: ~ 13.1 h
t1/2, Pt concentration-time profile in rat plasma ([4]; rats, intravenous, 5 mg/kg oxaliplatin or equivalent dose): ~ 13.1 h
gel electrophoretic mobility of plasmid DNA [5]: a decrease in the rate of migration for closed circular DNA (Form I)
IC50 [6]: 24.2 ± 0.35 µM
IC50 [7]: 16.6 ± 0.56 µM
IC50 [8]: 19.1 ± 1.89 µM
IC50 [9]: 42.9 ± 3.54 µM
